Measured values published in patent US20240287124A1, “PRODRUGS OF 4'-SUBSTITUTED NUCLEOSIDE REVERSE TRANSCRIPTASE INHIBITORS” (Merck Sharp & Dohme LLC, priority 2023, published 2024).
In brackets after ≈: the same amount, converted by molar mass. Where two headings read alike, the source gives them in different places.

Columns and labels:
[1] = Aqueous solubility in PBS, pH 7.4; type: physicochemical; details: pH 7.4 phosphate buffered saline, 24 hours, amorphous or crystalline material; for solubility at 24 h: phosphate buffered saline, pH 7.4, aqueous buffer, thermodynamic from solid, read-out: Aqu. Solubility
Method in brief: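 Excess solid suspended at 0.5 mg/mL in PBS pH 7.4 and stirred 24 hours. Filtrate (0.45 μm) diluted 1:1 with ACN:H2O and quantified by UPLC against a standard curve; residual solid phase checked by XRPD and PLM.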

[2] = test system: HIV-1 wild-type (R8) virus; assay: Viral KINetics in Green cells (VIKING) assay, HIV-1 replication in MT4-GFP reporter cells; type: cell-based; details: MT4-GFP cells, HIV-1 wild-type (R8), read-out: Viking (10% NHS), IC50
Method in brief: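 Compounds in 3-fold, 10-point series (typical 4 μM-0.2 nM) in 10% normal human serum received MT4 GFP-reporter T cells pre-infected overnight with wild-type R8 virus (MOI ~0.01). Ratio of GFP-positive cells at 72 vs 48 h defined replication; IC50 from nonlinear 4-parameter dose-response fitting.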

[3] = Human immunodeficiency virus 1, 10% normal human serum

Compound	solubility at 24 h [1] [µg/mL]	IC50 [2, 3] [nM]	Aqu. Solubility [1] [µg/mL]	IC50 ([2]; 10% normal human serum) [nM]
C#C[C@]1(COC(=O)OCCCCCC)O[C@@H](n2ccc3c(N)nc(Cl)nc32)C[C@@H]1O [Example 120]	108 (≈ 247 µM)	3.8		
C#C[C@]1(COC(=O)OCCCCCCC)O[C@@H](n2ccc3c(N)nc(Cl)nc32)C[C@@H]1O [Example 121]	7 (≈ 15.5 µM)	3.1		
C#C[C@]1(COC(=O)OCc2ccccc2)O[C@@H](n2ccc3c(N)nc(Cl)nc32)C[C@@H]1O [Example 122]			107	4
C#C[C@]1(COC(=O)OCCc2ccccc2)O[C@@H](n2ccc3c(N)nc(Cl)nc32)C[C@@H]1O [Example 124]	71 (≈ 155 µM)	3.6		
C#C[C@]1(COC(=O)OCCCCCCCCC)O[C@@H](n2ccc3c(N)nc(Cl)nc32)C[C@@H]1O [Example 126]	21 (≈ 43.8 µM)	2.6		
C#C[C@]1(COC(=O)CCCc2ccccc2)O[C@@H](n2ccc3c(N)nc(Cl)nc32)C[C@@H]1O [Example 129]	37 (≈ 81.3 µM)	3.1		
C#C[C@]1(COCOC(=O)OC(C)C)O[C@@H](n2ccc3c(N)nc(Cl)nc32)C[C@@H]1O [Example 133]	341 (≈ 803 µM)	2.7		
C#C[C@]1(COCOC(=O)OCCCCCCCCCCCC)O[C@@H](n2ccc3c(N)nc(Cl)nc32)C[C@@H]1O [Example 134]	< 1	3.7		
C#C[C@]1(COCOC(=O)CCCCCCCCC)O[C@@H](n2ccc3c(N)nc(Cl)nc32)C[C@@H]1O [Example 136]	< 1	3.2		
C#C[C@]1(COC(=O)OC(CC)CC)O[C@@H](n2ccc3c(N)nc(Cl)nc32)C[C@@H]1OC(=O)OC(CC)CC [Example 142]	< 1	1760		
C#C[C@]1(COC(=O)OCc2oc(=O)oc2C)O[C@@H](n2ccc3c(N)nc(Cl)nc32)C[C@@H]1O [Example 143]	229 (≈ 493 µM)	2.9		
C#C[C@]1(COC(=O)CCCC[C@@H]2SC[C@@H]3NC(=O)N[C@@H]32)O[C@@H](n2ccc3c(N)nc(Cl)nc32)C[C@@H]1O [Example 145]	38 (≈ 71 µM)	3.2		
C#C[C@]1(COC(=O)CCCC)O[C@@H](n2ccc3c(N)nc(Cl)nc32)C[C@@H]1OC(=O)OCC [Example 146]	7 (≈ 15.1 µM)	19		
C#C[C@]1(CO)O[C@@H](n2ccc3c(N)nc(Cl)nc32)C[C@@H]1OC(=O)OCCCc1ccccc1 [Example 152]	< 1	6		
C#C[C@]1(CO)O[C@@H](n2ccc3c(N)nc(Cl)nc32)C[C@@H]1OC(=O)OCCCCCCC [Example 153]	< 1	3.8		
C#C[C@]1(CO)O[C@@H](n2ccc3c(N)nc(Cl)nc32)C[C@@H]1OC(=O)OCC1CCCCC1 [Example 154]	< 1	3.5		
C#C[C@]1(CO)O[C@@H](n2ccc3c(N)nc(Cl)nc32)C[C@@H]1OC(=O)OCCOC(C)=O [Example 156]	66 (≈ 150 µM)	3.2		
C#C[C@]1(CO)O[C@@H](n2ccc3c(N)nc(Cl)nc32)C[C@@H]1OC(=O)OCCCCC[C@@H]1SC[C@@H]2NC(=O)N[C@@H]21 [Example 160]	< 1	11		
C#C[C@]1(COC(=O)OCc2cc[nH]c(=O)c2)O[C@@H](n2ccc3c(N)nc(Cl)nc32)C[C@@H]1OC(=O)OCc1ccccc1 [Example 161]	< 1	5.8		
C#C[C@]1(COC(=O)OCCCCCCCCCCCCCC)O[C@@H](n2ccc3c(N)nc(Cl)nc32)C[C@@H]1O [Example 163]	< 1	3.5		
C#C[C@]1(COC(=O)OCCCCC[C@@H]2SC[C@@H]3NC(=O)N[C@@H]32)O[C@@H](n2ccc3c(N)nc(Cl)nc32)C[C@@H]1OC(=O)OCC [Example 171]	1.9 (≈ 2.98 µM)	18		
C#C[C@]1(COC(=O)OCc2cccnc2)O[C@@H](n2ccc3c(N)nc(Cl)nc32)C[C@@H]1CC(=O)CCCc1ccccc1 [Example 173]	< 1	6.2		

Compound	solubility at 24 h [1] [µg/mL]	IC50 [2, 3] [nM]	Aqu. Solubility [1] [µg/mL]	IC50 ([2]; 10% normal human serum) [nM]
C#C[C@]1(COC(=O)OCc2ccccc2)O[C@@H](n2ccc3c(N)nc(Cl)nc32)C[C@@H]1OC(=O)OCc1cccnc1 [Example 174]	< 1	13		
C#C[C@]1(CO)O[C@@H](n2ccc3c(N)nc(Cl)nc32)C[C@@H]1OC(=O)CC1CCCCC1 [Example 177]	< 1	8.5		
C#C[C@]1(CO)O[C@@H](n2ccc3c(N)nc(Cl)nc32)C[C@@H]1OC(=O)CCCOC(C)=O [Example 178]	143 (≈ 327 µM)	3.8		
C#C[C@]1(CO)O[C@@H](n2ccc3c(N)nc(Cl)nc32)C[C@@H]1OC(=O)CCC [Example 179]	27 (≈ 71.3 µM)	11		
C#C[C@]1(CO)O[C@@H](n2ccc3c(N)nc(Cl)nc32)C[C@@H]1OC(C)=O [Example 180]	257 (≈ 733 µM)	27		
C#C[C@]1(CO)O[C@@H](n2ccc3c(N)nc(Cl)nc32)C[C@@H]1OC(=O)Cc1ccc(Br)cc1 [Example 181]	< 1	4		
C#C[C@]1(COC(=O)CC2CCCCC2)O[C@@H](n2ccc3c(N)nc(Cl)nc32)C[C@@H]1O [Example 182]	124 (≈ 286 µM)	3.1		
C#C[C@]1(CO)O[C@@H](n2ccc3c(N)nc(Cl)nc32)C[C@@H]1OC(=O)CCCC[C@@H]1SC[C@@H]2NC(=O)N[C@@H]21 [Example 184]	161 (≈ 301 µM)	57		
C#C[C@]1(COC(=O)CCCCC)O[C@@H](n2ccc3c(N)nc(Cl)nc32)C[C@@H]1OC(C)=O [Example 185]	4.2 (≈ 9.36 µM)	17		
C#C[C@]1(COC(=O)CCCCC)O[C@@H](n2ccc3c(N)nc(Cl)nc32)C[C@@H]1OC(=O)CC [Example 188]	2.4 (≈ 5.18 µM)	17		
C#C[C@]1(COC(=O)CCCC)O[C@@H](n2ccc3c(N)nc(Cl)nc32)C[C@@H]1OC(=O)OC [Example 189]	23 (≈ 51 µM)	19		
C#C[C@]1(COC(=O)CCCC[C@@H]2SC[C@@H]3NC(=O)N[C@@H]32)O[C@@H](n2ccc3c(N)nc(Cl)nc32)C[C@@H]1OC(=O)CCCc1ccccc1 [Example 190]	< 1	6.5		
C#C[C@]1(COC(=O)OCc2ccccc2)O[C@@H](n2ccc3c(N)nc(Cl)nc32)C[C@@H]1OC(C)=O [Example 193]	1.2 (≈ 2.47 µM)	29		
C#C[C@]1(COC(=O)OCc2ccccc2)O[C@@H](n2ccc3c(N)nc(Cl)nc32)C[C@@H]1OC(=O)CCC [Example 194]	2.3 (≈ 4.48 µM)	17		
C#C[C@]1(CO)O[C@@H](n2ccc3c(NC(=O)CCCCCCCCC)nc(Cl)nc32)C[C@@H]1O [Example 197]	< 1	29		
C#C[C@]1(CO)O[C@@H](n2ccc3c(NC(=O)Cc4ccccc4)nc(Cl)nc32)C[C@@H]1O [Example 199]	51 (≈ 119 µM)	230		
C#C[C@]1(CO)O[C@@H](n2ccc3c(NC(=O)CCc4ccccc4)nc(Cl)nc32)C[C@@H]1O [Example 200]	307 (≈ 696 µM)	155		
C#C[C@]1(COC(=O)OCCCCC[C@@H]2SC[C@@H]3NC(=O)N[C@@H]32)O[C@@H](n2ccc3c(N)nc(Cl)nc32)C[C@@H]1OC(=O)OCCCCC[C@@H]1SC[C@@H]2NC(=O)N[C@@H]21 [Example 207]	1.2 (≈ 1.46 µM)	21		
C#C[C@]1(COC(=O)OCc2ccccc2)O[C@@H](n2ccc3c(N)nc(Cl)nc32)C[C@@H]1OC(=O)CCCCC [Example 210]	< 1	2.9		
C#C[C@]1(COC(=O)OCc2ccccc2)O[C@@H](n2ccc3c(N)nc(Cl)nc32)C[C@@H]1OC(=O)OCCCC [Example 212]	< 1	4.8		
C#C[C@]1(COC(=O)OCc2ccccc2)O[C@@H](n2ccc3c(N)nc(Cl)nc32)C[C@@H]1OC(=O)OCCCCCCCC [Example 213]	< 1	7.9		
C#C[C@]1(COC(=O)OCc2ccccc2)O[C@@H](n2ccc3c(N)nc(Cl)nc32)C[C@@H]1OC(=O)OCc1ccccc1 [Example 214]	< 1	4.7		
